Biological target: T1, ΔF508-CFTR (Homo sapiens, UniProt P13569, DEL508-508)
T1 construct: Primary lung epithelial cells homozygous for the Cystic Fibrosis-causing ΔF508 mutation were differentiated for a minimum of 4 weeks; endogenous in cells; host or cells: primary lung epithelial cells (hBE) homozygous for ΔF508, differentiated at an air-liquid interface
Experiment: hBE equivalent current (Ieq) assay: AUC of equivalent chloride current after forskolin/VX-770 in primary lung epithelial cells homozygous for ΔF508
Format: cell-based
Conditions: relative to CFTR amplifier (Compound A)+VX-809 (3 uM), compound at 10 uM and Compound A at 3 uM, 24 h treatment
Summary of the method: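 Readout is the increase over vehicle in equivalent chloride current AUC from forskolin/VX-770 addition to bumetanide, measured by current clamp at 36 °C after benzamil block of ENaC. Cultures were homozygous ΔF508 primary lung epithelium grown ≥4 weeks at air-liquid interface and exposed basolaterally to compound for 24 h.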

T1 sequence (P13569 with tags, fused parts or gaps DEL508-508): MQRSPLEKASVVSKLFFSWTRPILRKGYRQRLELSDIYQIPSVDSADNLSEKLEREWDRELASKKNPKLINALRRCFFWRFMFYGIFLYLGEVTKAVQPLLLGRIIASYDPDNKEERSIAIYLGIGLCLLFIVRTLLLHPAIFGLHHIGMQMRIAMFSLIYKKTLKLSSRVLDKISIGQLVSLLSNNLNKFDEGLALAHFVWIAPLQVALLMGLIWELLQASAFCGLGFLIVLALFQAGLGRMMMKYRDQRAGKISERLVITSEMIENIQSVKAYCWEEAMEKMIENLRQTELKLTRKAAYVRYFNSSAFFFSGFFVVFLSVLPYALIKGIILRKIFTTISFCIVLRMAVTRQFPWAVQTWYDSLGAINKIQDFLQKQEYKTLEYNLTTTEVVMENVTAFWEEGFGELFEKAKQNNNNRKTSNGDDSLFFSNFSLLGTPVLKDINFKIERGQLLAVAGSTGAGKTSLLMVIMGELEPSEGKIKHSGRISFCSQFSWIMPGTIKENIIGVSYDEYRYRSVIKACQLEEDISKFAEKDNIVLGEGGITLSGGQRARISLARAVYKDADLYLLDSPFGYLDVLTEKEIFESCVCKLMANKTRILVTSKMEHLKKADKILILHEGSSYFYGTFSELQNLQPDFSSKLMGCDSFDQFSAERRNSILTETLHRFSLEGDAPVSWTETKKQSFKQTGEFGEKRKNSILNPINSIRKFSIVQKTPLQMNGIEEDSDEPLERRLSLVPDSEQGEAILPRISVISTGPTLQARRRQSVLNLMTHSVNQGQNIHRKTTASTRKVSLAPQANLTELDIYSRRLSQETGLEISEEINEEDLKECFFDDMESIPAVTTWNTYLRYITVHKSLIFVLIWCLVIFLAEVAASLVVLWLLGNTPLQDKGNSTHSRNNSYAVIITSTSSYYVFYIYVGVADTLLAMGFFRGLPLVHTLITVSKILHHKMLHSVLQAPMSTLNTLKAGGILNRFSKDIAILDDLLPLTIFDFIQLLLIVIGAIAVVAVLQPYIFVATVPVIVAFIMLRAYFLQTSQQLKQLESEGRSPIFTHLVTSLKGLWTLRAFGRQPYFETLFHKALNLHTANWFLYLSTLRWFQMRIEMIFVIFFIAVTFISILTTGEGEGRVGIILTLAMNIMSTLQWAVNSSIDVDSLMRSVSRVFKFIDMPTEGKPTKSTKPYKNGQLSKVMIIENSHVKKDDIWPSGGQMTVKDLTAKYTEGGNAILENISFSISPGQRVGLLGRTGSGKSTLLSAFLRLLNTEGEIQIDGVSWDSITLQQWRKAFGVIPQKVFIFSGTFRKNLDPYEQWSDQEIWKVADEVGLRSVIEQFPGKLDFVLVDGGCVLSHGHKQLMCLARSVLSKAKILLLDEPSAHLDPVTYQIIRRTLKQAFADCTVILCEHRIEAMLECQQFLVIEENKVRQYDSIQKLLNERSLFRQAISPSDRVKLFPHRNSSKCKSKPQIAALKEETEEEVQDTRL

Row | Structure (SMILES) | Activity
1 | Cc1c(-c2cc(C(=O)[O-])c3c(O[C@H](CCO)c4ccccc4)ccc(C)c3n2)sc2ccccc12.[Na+] [Compound 311] | ++ (activity>50% of CFTR amplifier+VX-809 (3 uM) with compound at 10 uM and Compound A at 3 uM)
2 | COCC[C@H](Oc1ccc(C)c2nc(-c3sc4ccccc4c3C)cc(C(=O)[O-])c12)c1ccccc1.[Na+] [Compound 312] | ++ (activity>50% of CFTR amplifier+VX-809 (3 uM) with compound at 10 uM and Compound A at 3 uM)
3 | COCC[C@@H](Oc1ccc(C)c2nc(-c3sc4ccccc4c3C)cc(C(=O)[O-])c12)c1ccccc1.[Na+] [Compound 313] | ++ (activity>50% of CFTR amplifier+VX-809 (3 uM) with compound at 10 uM and Compound A at 3 uM)
4 | Cc1c(-c2cc(C(=O)[O-])c3c(O[C@H]4C[C@H](C)C[C@H](C)C4)ccc(C)c3n2)sc2ccccc12.[Na+] [Compound 314] | ++ (activity>50% of CFTR amplifier+VX-809 (3 uM) with compound at 10 uM and Compound A at 3 uM)
5 | Cc1c(-c2cc(C(=O)[O-])c3c(O[C@@H]4C[C@H](C)C[C@H](C)C4)ccc(C)c3n2)sc2ccccc12.[Na+] [Compound 315] | ++ (activity>50% of CFTR amplifier+VX-809 (3 uM) with compound at 10 uM and Compound A at 3 uM)
6 | Cc1c(-c2cc(C(=O)[O-])c3c(OC4CC(C)(C)C4)ccc(C)c3n2)sc2ccccc12.[Na+] [Compound 318] | ++ (activity>50% of CFTR amplifier+VX-809 (3 uM) with compound at 10 uM and Compound A at 3 uM)
7 | Cc1c(-c2cc(C(=O)[O-])c3c(OCC4CCC4)ccc(C)c3n2)sc2ccccc12.[Na+] [Compound 319] | ++ (activity>50% of CFTR amplifier+VX-809 (3 uM) with compound at 10 uM and Compound A at 3 uM)
8 | Cc1c(-c2cc(C(=O)[O-])c3c(OC[C@H]4C[C@@](C)(O)C4)ccc(C)c3n2)sc2ccccc12.[Na+] [Compound 320] | ++ (activity>50% of CFTR amplifier+VX-809 (3 uM) with compound at 10 uM and Compound A at 3 uM)
9 | Cc1c(-c2cc(C(=O)[O-])c3c(OC[C@H]4C[C@](C)(O)C4)ccc(C)c3n2)sc2ccccc12.[Na+] [Compound 321] | ++ (activity>50% of CFTR amplifier+VX-809 (3 uM) with compound at 10 uM and Compound A at 3 uM)
10 | Cc1c(-c2cc(C(=O)[O-])c3c(OC[C@H]4CC[C@@](C)(O)CC4)ccc(C)c3n2)sc2ccccc12.[Na+] [Compound 322] | ++ (activity>50% of CFTR amplifier+VX-809 (3 uM) with compound at 10 uM and Compound A at 3 uM)
11 | Cc1c(-c2cc(C(=O)[O-])c3c(OC[C@H]4CC[C@](C)(O)CC4)ccc(C)c3n2)sc2ccccc12.[Na+] [Compound 323] | ++ (activity>50% of CFTR amplifier+VX-809 (3 uM) with compound at 10 uM and Compound A at 3 uM)
12 | CO[C@]1(C)C[C@H](COc2ccc(C)c3nc(-c4sc5ccccc5c4C)cc(C(=O)[O-])c23)C1.[Na+] [Compound 324] | ++ (activity>50% of CFTR amplifier+VX-809 (3 uM) with compound at 10 uM and Compound A at 3 uM)
13 | CO[C@]1(C)C[C@@H](COc2ccc(C)c3nc(-c4sc5ccccc5c4C)cc(C(=O)[O-])c23)C1.[Na+] [Compound 325] | ++ (activity>50% of CFTR amplifier+VX-809 (3 uM) with compound at 10 uM and Compound A at 3 uM)
14 | CO[C@]1(C)CC[C@H](COc2ccc(C)c3nc(-c4sc5ccccc5c4C)cc(C(=O)[O-])c23)CC1.[Na+] [Compound 326] | ++ (activity>50% of CFTR amplifier+VX-809 (3 uM) with compound at 10 uM and Compound A at 3 uM)
15 | CO[C@]1(C)CC[C@@H](COc2ccc(C)c3nc(-c4sc5ccccc5c4C)cc(C(=O)[O-])c23)CC1.[Na+] [Compound 327] | ++ (activity>50% of CFTR amplifier+VX-809 (3 uM) with compound at 10 uM and Compound A at 3 uM)
16 | Cc1ccc(OC(C)c2ccccc2)c2c(C(=O)[O-])cc(-c3cc4ccccn4c3)nc12.[Na+] (centres unmarked) [Compound 328] | ++ (activity>50% of CFTR amplifier+VX-809 (3 uM) with compound at 10 uM and Compound A at 3 uM)
17 | Cc1c(-c2cc(C(=O)[O-])c3c(O[C@@H](C)C4CCOCC4)ccc(C)c3n2)sc2ccccc12.[Na+] [Compound 329] | ++ (activity>50% of CFTR amplifier+VX-809 (3 uM) with compound at 10 uM and Compound A at 3 uM)
